Measured values: patent US8778985B2, “Inhibiting amyloid-beta peptide/rage interaction at the blood-brain barrier” (The University of Rochester, priority 2006, dated 2014)

Molecular target: T1, RAGE (Homo sapiens, UniProt Q15109)
T1 construct: expressed in transfected cells; host or cells: Chinese hamster ovary (CHO) cells
Experiment: 125I-Aβ40 specific binding on RAGE-transfected CHO cells at 4° C., competitive inhibition
Settings: for inhibitory constant (Ki) of Aβ-RAGE binding: competitive
Text: Data are mean±s.e.m., n=3 per group.
All three are tertiary amides substituted with a large, hydrophobic hydrocarbon moiety and a monosubstituted aromatic moiety. Linkage to the monosubstituted aromatic is either direct (FPS2) or via an alkyl (FPS1) or heteroaromatic (FPS3) spacer. Two of the compounds also feature a highly electron-poor substituted benzene ring (3-nitro, 4-chloro for FPS1; 3,5-dinitro for FPS2).

T1 sequence (Q15109 23-404): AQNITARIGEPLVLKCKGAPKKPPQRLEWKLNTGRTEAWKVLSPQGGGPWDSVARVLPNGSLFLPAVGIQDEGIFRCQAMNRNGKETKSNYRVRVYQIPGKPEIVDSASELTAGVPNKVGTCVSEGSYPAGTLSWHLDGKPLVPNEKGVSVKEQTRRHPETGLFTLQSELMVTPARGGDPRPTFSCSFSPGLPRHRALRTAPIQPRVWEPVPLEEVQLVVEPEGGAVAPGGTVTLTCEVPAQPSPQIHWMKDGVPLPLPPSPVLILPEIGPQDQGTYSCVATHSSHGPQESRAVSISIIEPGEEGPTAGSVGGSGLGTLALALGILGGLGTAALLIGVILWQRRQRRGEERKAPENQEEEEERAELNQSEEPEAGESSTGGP

| Ki/Kd ratio (Ki compound's inhibitory constant, Kd Aβ-RAGE binding constant) | inhibitory constant (Ki) of Aβ-RAGE binding | Structure (SMILES) |
| --- | --- | --- |
| 2.6 | low | CCOCCCN(CC(=O)N(Cc1cccn1Cc1ccc(F)cc1)C1CCCCC1)C(=O)C(C)(C)CCl [FPS1, 3-chloro-N-[2-[cyclohexyl[[1-[(4-fluorophenyl)methyl]-1H-pyrrol-2-yl]methyl]amino]-2-oxoethyl]-N-(3-ethoxypropyl)-2,2-dimethyl-(9Cl)-propanamide] |
| 1.6 | low | CCCCCC(=Cc1ccccc1)CN(CCc1c[nH]c2ccccc12)C(=O)c1ccc(Cl)c([N+](=O)[O-])c1 [FPS3, 4-chloro-N-[2-(1H-indo-3-yl)-ethyl]-3-nitro-N-(2-pentyl-3-phenyl-allyl)-benzamide] |
